Five molecules from US12679878B2, “CRF2 receptor agonists and their use in therapy” (SANOFI, priority 2020, dated 2026) can be followed below.

Starred links: 1 amine or outer side, 2 acyl side, 3 side chain; linkers in the order of their positions; H or OH if unused. Non-standard residues stand in square brackets, D forms with d. Residues, ends and D or L forms follow the SMILES beside them. Groups on a side chain read outwards from the residue. *: point of attachment. C16 diacid = O=C(O)CCCCCCCCCCCCCCC(=O)*; γGlu = O=C(O)[C@H](CCC(=O)[*:2])N[*:1]; AEEA = NCCOCCOCC(=O)O; Aib = CC(C)(N)C(=O)O Bounds are passed on as bounds.

In experiment [1] the target is T1, human CRF2α receptor (Homo sapiens, UniProt Q13324).
T1 construct: expressed in transfected cells; host or cells: TeloHEAC
T1 sequence (Q13324 1-411): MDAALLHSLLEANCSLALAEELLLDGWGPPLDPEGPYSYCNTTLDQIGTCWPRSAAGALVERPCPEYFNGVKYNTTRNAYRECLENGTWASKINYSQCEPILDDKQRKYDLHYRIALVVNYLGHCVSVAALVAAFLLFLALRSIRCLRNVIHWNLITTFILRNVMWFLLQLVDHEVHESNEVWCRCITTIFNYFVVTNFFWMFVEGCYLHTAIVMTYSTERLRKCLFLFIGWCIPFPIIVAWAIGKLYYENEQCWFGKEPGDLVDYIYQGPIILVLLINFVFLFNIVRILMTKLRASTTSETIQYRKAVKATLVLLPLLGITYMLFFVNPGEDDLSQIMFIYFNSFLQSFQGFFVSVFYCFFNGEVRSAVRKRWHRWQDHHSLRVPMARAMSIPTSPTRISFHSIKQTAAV
Nature of the experiment: cAMP agonism at human CRF2α receptor in TeloHEAC cells, FA modified peptides (Example 19.9). It counts as cell-based. As to conditions: 0% HSA, relative to urocortin 2. An outline of the steps:
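Efficacy and EC50 are referenced to 100 nM urocortin 2 as 100%, with cAMP measured as the 665/620 nm HTRF ratio after 1 h at room temperature. Compounds (0.5 mM DMSO stock, 16 twofold dilutions) acted 30 min at 37 °C on CRF2α-expressing TeloHEAC cells, buffer containing IBMX and 0% or 0.2% HSA.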

Experiment [2] addresses T2, CRF1R receptor (Homo sapiens, UniProt P34998).
T2 construct: host or cells: CHO-K1 clone 2
T2 sequence (P34998 24-415): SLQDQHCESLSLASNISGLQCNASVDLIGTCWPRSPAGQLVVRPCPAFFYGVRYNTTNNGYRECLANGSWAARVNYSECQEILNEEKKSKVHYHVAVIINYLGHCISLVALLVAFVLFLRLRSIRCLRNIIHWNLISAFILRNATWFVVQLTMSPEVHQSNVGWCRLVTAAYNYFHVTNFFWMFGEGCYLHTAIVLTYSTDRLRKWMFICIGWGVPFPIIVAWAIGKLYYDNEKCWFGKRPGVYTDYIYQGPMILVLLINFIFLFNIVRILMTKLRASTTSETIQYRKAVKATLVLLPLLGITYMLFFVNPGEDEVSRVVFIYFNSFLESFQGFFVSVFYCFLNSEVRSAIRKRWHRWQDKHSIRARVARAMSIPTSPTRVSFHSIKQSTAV
The experiment can be described thus: cAMP activity at anti-target CRF1R, CHO-K1 cell line clone 2 (Example 19.10). It counts as cell-based. The settings on record: CRF1R CHO-K1 clone 2; for EC50: 0% HSA, read-out: EC50 [nM] 0% HSA; for Emax: 100% = Sauvagine at 100 nM. The method in brief: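 The cAMP read-out used the same protocol as the previous assay, except that Sauvagine at 100 nM set the 100% activation control. Cells were CHO-K1 clone 2 overexpressing CRF1R, cultured in F12 medium with 10% FBS and G418 and stored frozen until use.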

The term EC50 denotes the concentration at which the effect is half-maximal. One may read the Emax as the size of the effect at its maximum, as opposed to the concentration needed. In experiment [1], `CC[C@H](C)[C@H](N)C(=O)N[C@H](C(=O)N[C@@H](CC(C)C)C(=O)N[C@@H](CO)C(=O)N[C@@H](CC(C)C)C(=O)N[C@@H](CC(=O)O)C(=O)N[C@@H](C(=O)N1CCC[C@H]1C(=O)N[C@H](C(=O)N[C@@H](CCCCN)C(=O)N[C@@H](CC(C)C)C(=O)N[C@@H](CCCCNC(=O)COCCOCCNC(=O)COCCOCCNC(=O)CC[C@H](NC(=O)CC[C@H](NC(=O)CCCCCCCCCCCCCCC(=O)O)C(=O)O)C(=O)O)C(=O)N[C@@H](CCC(N)=O)C(=O)N[C@H](C(=O)N[C@@H](CC(C)C)C(=O)N[C@@H](CC(C)C)C(=O)N[C@@H](CCCCN)C(=O)N[C@@H](CCC(N)=O)C(=O)N[C@@H](CCC(=O)O)C(=O)N[C@@H](CCCNC(=N)N)C(=O)N[C@@H](CCC(N)=O)C(=O)N[C@@H](CCCCN)C(=O)NC(C)(C)C(=O)N[C@@H](CCC(N)=O)C(=O)N[C@@H](CCCNC(=N)N)C(=O)N[C@@H](CCC(=O)O)C(=O)N[C@@H](CCC(N)=O)C(=O)N[C@@H](C)C(=O)N[C@@H](CCC(=O)O)C(=O)N[C@@H](CCCCN)C(=O)N[C@@H](CC(N)=O)C(=O)N[C@@H](CCCCN)C(=O)N[C@@H](CCC(N)=O)C(=O)N[C@H](C(=O)N[C@@H](CC(C)C)C(=O)N[C@@H](C)C(=O)N[C@@H](CCC(N)=O)C(=O)N[C@H](C(N)=O)C(C)C)[C@@H](C)CC)[C@@H](C)CC)[C@@H](C)CC)C(C)C)C(C)C` [compound 199] (H-IVLSLD[dV]PIKLK([AEEA-AEEA-γGlu-γGlu-C16 diacid])QILLKQERQK[Aib]QREQAEKNKQILAQV-NH2; N-terminus assumed) had a concentration giving a half-maximal response (EC50) of 1.39 nM. In experiment [2], the 50% effective concentration (EC50) was greater than 100 nM and the Emax is -2.9%.

Regarding `CC[C@H](C)[C@H](N)C(=O)N[C@H](C(=O)N[C@@H](CC(C)C)C(=O)N[C@@H](CO)C(=O)N[C@@H](CC(C)C)C(=O)N[C@@H](CC(=O)O)C(=O)N[C@@H](C(=O)N1CCC[C@H]1C(=O)N[C@H](C(=O)N[C@@H](CCCCN)C(=O)N[C@@H](CC(C)C)C(=O)N[C@@H](CCCCNC(=O)COCCOCCNC(=O)COCCOCCNC(=O)CC[C@H](NC(=O)CCCCCCCCCCCCCCC(=O)O)C(=O)O)C(=O)N[C@@H](CCC(N)=O)C(=O)N[C@H](C(=O)N[C@@H](CC(C)C)C(=O)N[C@@H](CC(C)C)C(=O)N[C@@H](CCCCN)C(=O)N[C@@H](CCC(N)=O)C(=O)N[C@@H](CCC(=O)O)C(=O)N[C@@H](CCCNC(=N)N)C(=O)N[C@@H](CCC(N)=O)C(=O)N[C@@H](CCCCN)C(=O)N[C@@H](CCCCN)C(=O)NC(C)(C)C(=O)N[C@@H](CCCNC(=N)N)C(=O)N[C@@H](CCC(N)=O)C(=O)N[C@@H](CCCCN)C(=O)N[C@@H](C)C(=O)N[C@@H](CCC(=O)O)C(=O)N[C@@H](CCCCN)C(=O)N[C@@H](CC(N)=O)C(=O)N[C@@H](CCCCN)C(=O)N[C@@H](CCC(N)=O)C(=O)N[C@H](C(=O)N[C@@H](CC(C)C)C(=O)N[C@@H](C)C(=O)N[C@@H](CCC(N)=O)C(=O)N[C@H](C(N)=O)C(C)C)[C@@H](C)CC)[C@@H](C)CC)[C@@H](C)CC)C(C)C)C(C)C` [compound 200] (H-IVLSLD[dV]PIKLK([AEEA-AEEA-γGlu-C16 diacid])QILLKQERQKK[Aib]RQKAEKNKQILAQV-NH2; N-terminus assumed), the values for the EC50 in experiment [1] and in experiment [2] were 8.7 nM and greater than 100 nM, respectively. Moreover, the Emax in experiment [2] came out at 1.9%.

With `CC[C@H](C)[C@H](N)C(=O)N[C@H](C(=O)N[C@@H](CC(C)C)C(=O)N[C@@H](CO)C(=O)N[C@@H](CC(C)C)C(=O)N[C@@H](CC(=O)O)C(=O)N[C@@H](C(=O)N1CCC[C@H]1C(=O)N[C@H](C(=O)N[C@@H](CCCCN)C(=O)N[C@@H](CC(C)C)C(=O)N[C@@H](CCCCNC(=O)COCCOCCNC(=O)COCCOCCNC(=O)CC[C@H](NC(=O)CC[C@H](NC(=O)CCCCCCCCCCCCCCC(=O)O)C(=O)O)C(=O)O)C(=O)N[C@@H](CCC(N)=O)C(=O)N[C@H](C(=O)N[C@@H](CC(C)C)C(=O)N[C@@H](CC(C)C)C(=O)N[C@@H](CCCCN)C(=O)N[C@@H](CCC(N)=O)C(=O)N[C@@H](CCC(=O)O)C(=O)N[C@@H](CCCNC(=N)N)C(=O)N[C@@H](CCC(N)=O)C(=O)N[C@@H](CCCCN)C(=O)N[C@@H](CCCCN)C(=O)NC(C)(C)C(=O)N[C@@H](CCCNC(=N)N)C(=O)N[C@@H](CCC(N)=O)C(=O)N[C@@H](CCCCN)C(=O)N[C@@H](C)C(=O)N[C@@H](CCC(=O)O)C(=O)N[C@@H](CCCCN)C(=O)N[C@@H](CC(N)=O)C(=O)N[C@@H](CCCCN)C(=O)N[C@@H](CCC(N)=O)C(=O)N[C@H](C(=O)N[C@@H](CC(C)C)C(=O)N[C@@H](C)C(=O)N[C@@H](CCC(N)=O)C(=O)N[C@H](C(N)=O)C(C)C)[C@@H](C)CC)[C@@H](C)CC)[C@@H](C)CC)C(C)C)C(C)C` [compound 201] (H-IVLSLD[dV]PIKLK([AEEA-AEEA-γGlu-γGlu-C16 diacid])QILLKQERQKK[Aib]RQKAEKNKQILAQV-NH2; N-terminus assumed), the response in experiment [1] was half-maximal at 4.66 nM (EC50). Also, in experiment [2], the concentration for a half-maximal effect (EC50) is greater than 100 nM and the Emax is -2.8%.

In turn, `CC[C@H](C)[C@H](N)C(=O)N[C@H](C(=O)N[C@@H](CC(C)C)C(=O)N[C@@H](CO)C(=O)N[C@@H](CC(C)C)C(=O)N[C@@H](CC(=O)O)C(=O)N[C@@H](C(=O)N1CCC[C@H]1C(=O)N[C@H](C(=O)NCC(=O)N[C@@H](CC(C)C)C(=O)N[C@@H](CCCCNC(=O)COCCOCCNC(=O)COCCOCCNC(=O)CC[C@H](NC(=O)CCCCCCCCCCCCCCC(=O)O)C(=O)O)C(=O)N[C@@H](CCC(N)=O)C(=O)N[C@H](C(=O)N[C@@H](CC(C)C)C(=O)N[C@@H](CC(C)C)C(=O)N[C@@H](CCCCN)C(=O)N[C@@H](CCC(N)=O)C(=O)N[C@@H](CCC(=O)O)C(=O)N[C@@H](CCCNC(=N)N)C(=O)N[C@@H](CCC(N)=O)C(=O)N[C@@H](CCCCN)C(=O)N[C@@H](CCCCN)C(=O)NC(C)(C)C(=O)N[C@@H](CCCNC(=N)N)C(=O)N[C@@H](CCC(=O)O)C(=O)N[C@@H](CCC(N)=O)C(=O)N[C@@H](C)C(=O)N[C@@H](CCC(=O)O)C(=O)N[C@H](C(=O)N[C@@H](CC(N)=O)C(=O)N[C@@H](CCCCN)C(=O)N[C@@H](CCC(N)=O)C(=O)N[C@H](C(=O)N[C@@H](CC(C)C)C(=O)N[C@@H](C)C(=O)N[C@@H](CCC(N)=O)C(=O)N[C@H](C(N)=O)C(C)C)[C@@H](C)CC)[C@@H](C)O)[C@@H](C)CC)[C@@H](C)CC)C(C)C)C(C)C` [compound 202] (H-IVLSLD[dV]PIGLK([AEEA-AEEA-γGlu-C16 diacid])QILLKQERQKK[Aib]REQAETNKQILAQV-NH2; N-terminus assumed) had a concentration for a half-maximal effect (EC50) in experiment [1] of 0.87 nM. Moreover, in experiment [2], the half-maximal effective concentration (EC50) is greater than 100 nM and the Emax was found to be 5.4%.

In the case of `CC[C@H](C)[C@H](N)C(=O)N[C@H](C(=O)N[C@@H](CC(C)C)C(=O)N[C@@H](CO)C(=O)N[C@@H](CC(C)C)C(=O)N[C@@H](CC(=O)O)C(=O)N[C@@H](C(=O)N1CCC[C@H]1C(=O)N[C@H](C(=O)NCC(=O)N[C@@H](CC(C)C)C(=O)N[C@@H](CCCCNC(=O)COCCOCCNC(=O)COCCOCCNC(=O)CC[C@H](NC(=O)CC[C@H](NC(=O)CCCCCCCCCCCCCCC(=O)O)C(=O)O)C(=O)O)C(=O)N[C@@H](CCC(N)=O)C(=O)N[C@H](C(=O)N[C@@H](CC(C)C)C(=O)N[C@@H](CC(C)C)C(=O)N[C@@H](CCCCN)C(=O)N[C@@H](CCC(N)=O)C(=O)N[C@@H](CCC(=O)O)C(=O)N[C@@H](CCCNC(=N)N)C(=O)N[C@@H](CCC(N)=O)C(=O)N[C@@H](CCCCN)C(=O)N[C@@H](CCCCN)C(=O)NC(C)(C)C(=O)N[C@@H](CCCNC(=N)N)C(=O)N[C@@H](CCC(=O)O)C(=O)N[C@@H](CCC(N)=O)C(=O)N[C@@H](C)C(=O)N[C@@H](CCC(=O)O)C(=O)N[C@H](C(=O)N[C@@H](CC(N)=O)C(=O)N[C@@H](CCCCN)C(=O)N[C@@H](CCC(N)=O)C(=O)N[C@H](C(=O)N[C@@H](CC(C)C)C(=O)N[C@@H](C)C(=O)N[C@@H](CCC(N)=O)C(=O)N[C@H](C(N)=O)C(C)C)[C@@H](C)CC)[C@@H](C)O)[C@@H](C)CC)[C@@H](C)CC)C(C)C)C(C)C` [compound 203] (H-IVLSLD[dV]PIGLK([AEEA-AEEA-γGlu-γGlu-C16 diacid])QILLKQERQKK[Aib]REQAETNKQILAQV-NH2; N-terminus assumed), the EC50 is 4.7 nM in experiment [1] and greater than 100 nM in experiment [2]. Moreover, the Emax in experiment [2] came to 4.7%.
